Laboratory results from patent publication US9512105B2, “1-substituted 4-arylpiperazine as kappa opioid receptor antagonists” (RESEARCH TRIANGLE INSTITUTE, priority 2011, dated 2016).
Counter-ions that a name gives are not always drawn. Like-named read-outs stand apart in the source and are kept apart here. Each block holds one molecule with its values, some of them ahead of it.

Experiments:
[1] = molecular target: T1, cloned human δ-opioid receptor (Homo sapiens, UniProt P41143); assay: Inhibition of DPDPE-stimulated [35S]GTPγS binding; assay type: biochemical
T1 construct: expressed in transfected cells

[2] = molecular target: T2, cloned human μ-opioid receptor (Homo sapiens, UniProt P35372); assay: Inhibition of DAMGO-stimulated [35S]GTPγS binding; assay type: biochemical
T2 construct: expressed in transfected cells

[3] = molecular target: T3, cloned human κ-opioid receptor (Homo sapiens, UniProt P41145); assay: Inhibition of U69,593-stimulated [35S]GTPγS binding; assay type: biochemical; details: for δ/κ / μ/κ: ratio of Ke values; for δ/κ: selectivity for κ relative to δ; for μ/κ: selectivity for κ relative to μ; for efficacy for the κ opioid receptor in words: [35S]GTPγS in vitro functional assay
T3 construct: expressed in transfected cells

[4] = antagonism of DPDPE-stimulated [35S]GTPγS binding, cloned human δ receptor
[5] = antagonism of DAMGO-stimulated [35S]GTPγS binding, cloned human μ receptor
[6] = antagonism of U69,593-stimulated [35S]GTPγS binding, cloned human κ receptor
[7] = antagonism of DPDPE-stimulated [35S]GTPγS binding, cloned human δ receptor, read-out: δ, DPDPE Ke
[8] = antagonism of DAMGO-stimulated [35S]GTPγS binding, cloned human μ receptor, read-out: μ, DAMGO Ke
[9] = antagonism of U69,593-stimulated [35S]GTPγS binding, cloned human κ receptor, read-out: κ, U69,593 Ke

T2 sequence (P35372 whole entry): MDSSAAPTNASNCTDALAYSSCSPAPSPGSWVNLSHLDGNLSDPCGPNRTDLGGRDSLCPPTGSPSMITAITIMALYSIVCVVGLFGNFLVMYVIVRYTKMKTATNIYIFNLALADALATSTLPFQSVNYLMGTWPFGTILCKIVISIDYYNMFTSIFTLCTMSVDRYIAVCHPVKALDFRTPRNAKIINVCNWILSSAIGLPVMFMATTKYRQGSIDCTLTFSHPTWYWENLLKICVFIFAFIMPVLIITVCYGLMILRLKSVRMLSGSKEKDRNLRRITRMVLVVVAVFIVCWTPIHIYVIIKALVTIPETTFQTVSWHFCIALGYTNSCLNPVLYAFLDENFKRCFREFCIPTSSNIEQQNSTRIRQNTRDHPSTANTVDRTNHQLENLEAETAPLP
T1 sequence (P41143 whole entry): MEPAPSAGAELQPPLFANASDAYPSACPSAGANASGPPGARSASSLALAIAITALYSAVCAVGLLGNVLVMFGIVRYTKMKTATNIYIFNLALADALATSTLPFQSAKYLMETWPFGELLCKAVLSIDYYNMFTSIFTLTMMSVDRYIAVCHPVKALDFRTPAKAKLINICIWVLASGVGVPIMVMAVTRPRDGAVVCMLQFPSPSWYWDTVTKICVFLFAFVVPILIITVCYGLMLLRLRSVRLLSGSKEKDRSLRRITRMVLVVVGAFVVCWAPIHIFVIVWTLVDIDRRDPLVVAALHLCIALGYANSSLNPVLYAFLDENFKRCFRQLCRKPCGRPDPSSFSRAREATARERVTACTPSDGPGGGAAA
T3 sequence (P41145 whole entry): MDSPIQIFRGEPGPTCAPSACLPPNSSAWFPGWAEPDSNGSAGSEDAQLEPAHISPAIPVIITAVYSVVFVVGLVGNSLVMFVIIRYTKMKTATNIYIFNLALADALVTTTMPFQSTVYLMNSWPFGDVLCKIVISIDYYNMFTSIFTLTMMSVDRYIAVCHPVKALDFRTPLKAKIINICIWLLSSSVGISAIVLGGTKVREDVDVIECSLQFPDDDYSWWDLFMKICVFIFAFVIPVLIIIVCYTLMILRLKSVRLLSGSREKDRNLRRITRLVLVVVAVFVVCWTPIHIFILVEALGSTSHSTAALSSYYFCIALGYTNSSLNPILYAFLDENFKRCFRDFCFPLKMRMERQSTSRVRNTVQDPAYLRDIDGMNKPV

SMILES: CC(C)[C@@H](CN1CCN(c2cccc(O)c2)[C@@H](C)C1)NC(=O)c1ccc(Oc2cccc(O)c2)cc1.Cl.Cl [Compound 6i, N-(1S)-1-{[(3S)-4-(3-Hydroxyphenyl)-3-methylpiperazin-1-yl]methyl}-2-methylpropyl-4-(3-hydroxyphenoxy)benzamide Dihydrochloride]
- δ, DPDPE Ke [1, 4]: 625 ± 121 nM
- μ, DAMGO Ke [2, 5]: 69 ± 14 nM
- κ, U69,593 Ke [3, 6]: 1.85 ± 0.51 nM
- δ/κ [3]: 338
- μ/κ [3]: 37

SMILES: COc1ccc(Oc2ccc(C(=O)N[C@H](CN3CCN(c4cccc(O)c4)[C@@H](C)C3)C(C)C)cc2)cc1.Cl.Cl [Compound 6j, N-(1S)-1-{[(3S)-4-(3-Hydroxyphenyl)-3-methylpiperazin-1-yl]methyl}-2-methylpropyl-4-(4-methoxyphenoxy)benzamide Dihydrochloride]
- δ, DPDPE Ke [1, 4]: 1383 ± 1049 nM
- μ, DAMGO Ke [2, 5]: 17 ± 5 nM
- efficacy for the κ opioid receptor in words [3]: high efficacy (low Ke values)
- κ, U69,593 Ke [3, 6]: 0.60 ± 0.19 nM
- δ/κ [3]: 2305
- μ/κ [3]: 28

SMILES: Cc1cc(C(=O)N[C@H](CN2CCN(c3cccc(O)c3)[C@@H](C)C2)C(C)C)ccc1Oc1ccccc1.Cl.Cl [Compound 6k, N-(1S)-1-{[(3S)-4-(3-Hydroxyphenyl)-3-methylpiperazin-1-yl]methyl}-2-methylpropyl-3-methyl-4-phenoxybenzamide Dihydrochloride]
- δ, DPDPE Ke [1, 4]: 435 ± 143 nM
- μ, DAMGO Ke [2, 5]: 15 ± 2 nM
- efficacy for the κ opioid receptor in words [3]: high efficacy (low Ke values)
- κ, U69,593 Ke [3, 6]: 0.63 ± 0.19 nM
- δ/κ [3]: 691
- μ/κ [3]: 24

SMILES: Cc1cccc(Oc2ccc(C(=O)N[C@H](CN3CCN(c4cccc(O)c4)[C@@H](C)C3)C(C)C)cc2Cl)c1.Cl.Cl [Compound 6l, 3-Chloro-N-[(2S)-1-[(3S)-4-(3-hydroxyphenyl)-3-methylpiperazin-1-yl]-3-methylbutan-2-yl]-4-(3-methylphenoxy)benzamide Dihydrochloride]
- Kb [1, 7]: 1.1 ± 0.262 µM
- melting point: 154 to 158 °C
- Kb [2, 8]: 0.043 ± 0.01 µM
- efficacy for the κ opioid receptor in words [3]: high efficacy (low Ke values)
- Kb [3, 9]: 0.00029 ± 0.00013 µM

- melting point: 179 to 183 °C
SMILES: Cc1ccc(O)c(Oc2ccc(C(=O)N[C@H](CN3CCN(c4cccc(O)c4)[C@@H](C)C3)C(C)C)cc2)c1.Cl.Cl [Compound 6m, 4-(2-Hydroxy-5-methylphenoxy)-N-[(2S)-1-[(3S)-4-(3-hydroxyphenyl)-3-methylpiperazin-1-yl]-3-methylbutan-2-yl]benzamide Dihydrochloride]

SMILES: CC(C)[C@@H](CN1CCN(c2cccc(O)c2)[C@@H](C)C1)NC(=O)c1ccc(Oc2ccccc2)cn1 [Compound 7a, N-(1S)-1-{[(3S)-4-(3-Hydroxyphenyl)-3-methylpiperazin-1-yl]methyl}-2-methylpropyl]-5-phenoxypyridine-2-carboxamide Trihydrochloride]
- Kb [1, 7]: 2.02 ± 0.678 µM
- Kb [2, 8]: 0.101 ± 0.016 µM
- Kb [3, 9]: 0.0028 ± 0.0012 µM
- δ/κ [3]: 723
- μ/κ [3]: 36

SMILES: CC(C)[C@@H](CN1CCN(c2cccc(O)c2)[C@@H](C)C1)NC(=O)c1ccc(Oc2ccccc2)nc1.Cl.Cl.Cl [Compound 7b, N-[(2S)-1-[(3S)-4-(3-Hydroxyphenyl)-3-methylpiperazin-1-yl]-3-methylbutan-2-yl]-6-phenoxypyridine-3-carboxamide Trihydrochloride]
- Kb [1]: 1.79 ± 0.063 µM
- melting point: 168 to 170 °C
- Kb [2]: 0.06 ± 0.011 µM
- Kb [3]: 0.0016 ± 0.0003 µM
- δ/κ [3]: 1119
- μ/κ [3]: 38

SMILES: CC(C)[C@@H](CN1CCN(c2cccc(O)c2)[C@@H](C)C1)NC(=O)c1ccc(Oc2ccccc2F)cc1.Cl.Cl [Compound 19a, 4-(2-Fluorophenoxy)-N-[(1S)-1-{[(3S)-4-(3-hydroxyphenyl)-3-methylpiperazin-1-yl]methyl}-2-methylpropyl]benzamide Dihydrochloride]
- Kb [1, 7]: 0.096 ± 0.018 µM
- melting point: 156 to 159 °C
- Kb [2, 8]: 0.0211 ± 0.004 µM
- efficacy for the κ opioid receptor in words [3]: high efficacy (low Ke values)
- Kb [3, 9]: 0.00076 ± 0.00021 µM
- δ/κ [3]: 126
- μ/κ [3]: 28

SMILES: CC(C)[C@@H](CN1CCN(c2cccc(O)c2)[C@@H](C)C1)NC(=O)c1ccc(Oc2cccc(C(F)(F)F)c2)cc1 [Compound 19b, N-[(1S)-1-{[(3S)-4-(3-Hydroxyphenyl)-3-methylpiperazin-1-yl]methyl}-2-methylpropyl]-4-[3-(trifluoromethyl)phenoxy]benzamide]
- Kb [1]: 0.054 ± 0.019 µM
- melting point: 110 to 115 °C
- Kb [2]: 0.021 ± 0.0072 µM
- Kb [3]: 0.0012 ± 0.00035 µM
- δ/κ [3]: 45
- μ/κ [3]: 18

SMILES: CC(C)[C@@H](CN1CCN(c2cccc(O)c2)[C@@H](C)C1)NC(=O)c1ccc(Oc2cccc(Cl)c2)cc1.Cl.Cl [Compound 19c, 4-(3-Chlorophenoxy)-N-[(1S)-1-{[(3S)-4-(3-hydroxyphenyl)-3-methylpiperazin-1-yl]methyl}-2-methylpropyl]benzamide Dihydrochloride]
- Kb [1, 7]: 0.0083 ± 0.0009 µM
- melting point: 103 to 105 °C
- Kb [2, 8]: 0.018 ± 0.0072 µM
- Kb [3, 9]: 0.00042 ± 5e-05 µM
- δ/κ [3]: 20
- μ/κ [3]: 43

SMILES: CC(C)[C@@H](CN1CCN(c2cccc(O)c2)[C@@H](C)C1)NC(=O)c1ccc(Oc2cccc(Br)c2)cc1.Cl.Cl [Compound 19d, 4-(3-Bromophenoxy)-N-[(1S)-1-{[(3S)-4-(3-hydroxyphenyl)-3-methylpiperazin-1-yl]methyl}-2-methylpropyl]benzamide Dihydrochloride]
- Kb [1, 7]: 0.042 ± 0.019 µM
- melting point: 106 to 109 °C
- Kb [2, 8]: 0.017 ± 0.0063 µM
- Kb [3, 9]: 0.00048 ± 2e-05 µM
- δ/κ [3]: 88
- μ/κ [3]: 35

SMILES: Cc1cccc(Oc2ccc(C(=O)N[C@H](CN3CCN(c4cccc(O)c4)[C@@H](C)C3)C(C)C)cc2)c1O.Cl.Cl [Compound 19e, 4-(2-Hydroxy-3-methylphenoxy)-N-[(2S)-1-[(3S)-4-(3-hydroxyphenyl)-3-methylpiperazin-1-yl]-3-methylbutan-2-yl]benzamide Dihydrochloride]
- Kb [1, 7]: 0.0927 ± 0.014 µM
- melting point: 173 °C
- Kb [2, 8]: 0.0238 ± 0.0089 µM
- Kb [3, 9]: 0.00034 ± 0.00016 µM

SMILES: Cc1cc(C)cc(Oc2ccc(C(=O)N[C@H](CN3CCN(c4cccc(O)c4)[C@@H](C)C3)C(C)C)cc2)c1.Cl.Cl [Compound 19f, 4-(3,5-Dimethylphenoxy)-N-[(1S)-1-{[(3S)-4-(3-hydroxyphenyl)-3-methylpiperazin-1-yl]methyl}-2-methylpropyl]benzamide Dihydrochloride]
- Kb [1, 7]: 0.078 ± 0.02 µM
- melting point: 117 to 120 °C
- Kb [2, 8]: 0.025 ± 0.007 µM
- Kb [3, 9]: 0.00098 ± 6e-05 µM
- δ/κ [3]: 80
- μ/κ [3]: 26

SMILES: CC(C)[C@@H](CN1CCN(c2cccc(O)c2)[C@@H](C)C1)NC(=O)c1ccc(Oc2ccccc2O)c(Cl)c1.Cl.Cl [Compound 19n, 3-Chloro-4-(2-hydroxyphenoxy)-N-[(1)-1-{[(3S)-4-(3-hydroxyphenyl)-3-methylpiperazin-1-yl]methyl}-2-methylpropyl]benzamide Dihydrochloride]
- δ, DPDPE Ke [1, 4]: 210 ± 82 nM
- μ, DAMGO Ke [2, 5]: 36 ± 9.2 nM
- κ, U69,593 Ke [3, 6]: 5.0 ± 0.82 nM
- δ/κ [3]: 42
- μ/κ [3]: 7
